Tested on: prejunctional AII receptors and sympathetic outflow
Assay: Spinal cord-stimulated pithed rats: pressor response to stimulation of sympathetic vasomotor outflow
Assay type: in vivo, Sprague-Dawley rats
Conditions: pithed rat; for inhibition of the pressor responses mediated by sympathetic nervous system activation (spinal cord stimulation): 0.3 mg/kg, i.v. 10 min before second frequency-response curve, 50 V, 1 msec, 0.3-5.0 Hz
Protocol: Normotensive male Sprague-Dawley rats (300-350 gm) were anesthetized with Brevital (10 mg/kg, i.v.), a tracheostomy was performed and the rats were then pithed by inserting a steel rod (1.5 mm in diameter) through the orbit and foramen magnum into the spinal cord. Immediately after pithing, rats were ventilated artificially with room air using a rodent respirator at a frequency of 60 cycles/min with a volume of 2 ml/100 gm body weight. The pithing rod was insulated except for a 6-cm section distal from the tip. Body temperature was maintained at 37-38° C. by a thermostatic heating pad. Animals were treated with tubocurararine (1 mg/kg, i.v) and atropine (1 mg/kg, i.v.), to prevent muscle movement during spinal cord stimulation and parasympathetic effects, respectively. Systemic arterial blood pressure was measured from the right carotid artery by a Statham P23 pressure transducer and recorded on a Grass polygraph. The left jugular vein was cannulated for i.v. administration of drugs.
Stimulation of sympathetic vasomotor outflow was accomplished by a consecutive train of stimulation (50 V, 1 msec, 0.3-5.0 Hz) which was delivered for 15 sec at each frequency. […] For all the compounds evaluated, this dose provided effective blockade of the pressor response to exogenous AII (100 ng/kg, i.v.). Each rat served as its own control.
AII data are shown as the means±S.E.M. of the number (n) of observations. Statistical significance of the differences between drug-treated animals and vehicle-control animals was tested by a one-way analysis of variance with a P valued of 0.05 accepted as significant.

Compound: CCCCc1ncc(/C=C(\Cc2cccs2)C(=O)O)n1Cc1ccc(C(=O)O)cc1 [Eprosartan, (E)-α-[2-n-butyl-1-[(4-carboxyphenyl)methyl]-1H-imidazol-5-yl]methylene-2-thiophenepropionic acid monomethanesulfonate]
- inhibition of the pressor responses mediated by sympathetic nervous system activation (spinal cord stimulation): significant inhibition

Compound: CCCCC1=NC2(CCCC2)C(=O)N1Cc1ccc(-c2ccccc2-c2nnn[nH]2)cc1 [irbesartan]
- inhibition of the pressor responses mediated by sympathetic nervous system activation (spinal cord stimulation): neither losartan, valsartan, or irbesartan produced significant inhibition

Compound: CCCCc1nc(Cl)c(CO)n1Cc1ccc(-c2ccccc2-c2nn[nH]n2)cc1 [losartan]
- inhibition of the pressor responses mediated by sympathetic nervous system activation (spinal cord stimulation): neither losartan, valsartan, or irbesartan produced significant inhibition

Compound: CCCCC(=O)N(Cc1ccc(-c2ccccc2-c2nnn[nH]2)cc1)[C@H](C(=O)O)C(C)C [valsartan]
- inhibition of the pressor responses mediated by sympathetic nervous system activation (spinal cord stimulation): neither losartan, valsartan, or irbesartan produced significant inhibition

Compound: Sar^1-Ile^8[AII]
- inhibition of the increase in pressor response to spinal cord stimulation (continuous infusion 10 ug/kg/min): significantly inhibited

Compound: angiotensin II (DRVYIHPF; Angiotensin-2; UniProt P01019 25-32, looked up) [AII, angiotensin II (AII), infused at a sub-pressor dose]
- shift of the frequency-response curve (pressor response to spinal cord stimulation) (continuous infusion of a sub-pressor dose, 40 ng/kg/min): significant leftward shifts

Source: patent US20070129415A1, “Method of Treating Isolated Systolic Hypertension” (priority 1997, published 2007)
